“And” between values parts separate entries of the source, which are not always exact repeats. Equal entries are not always repeated. Toxic doses and inconclusive results are not listed.
System: L1210 leukemia ip in BDF1 mice, survival T/C
Test: NCI In Vivo Anticancer Drug Screen. Data for tumor model L1210 Leukemia (intraperitoneal) in B6D2F1 (BDF1) mice
Conditions: endpoint: mean survival time, higher = longer survival
Outline: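 Tumor was transplanted into mice, which were then dosed with test compound or vehicle alone. Survival was recorded for each group, and the treated figure was expressed relative to the control figure.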

[1] = dose: 100.0 mg/kg/injection, schedule: Q04DX003 (ip), vehicle: saline with Tween-80
[2] = dose: 200.0 mg/kg/injection, schedule: Q04DX003 (ip), vehicle: saline with Tween-80
[3] = dose: 400.0 mg/kg/injection, schedule: Q04DX003 (ip), vehicle: saline with Tween-80
[4] = dose: 100.0 mg/kg/injection, schedule: Q01DX001 (ip), vehicle: saline
[5] = dose: 100.0 mg/kg/injection, schedule: Q01DX009 (ip), vehicle: saline
[6] = dose: 200.0 mg/kg/injection, schedule: Q01DX001 (ip), vehicle: saline
[7] = dose: 200.0 mg/kg/injection, schedule: Q01DX009 (ip), vehicle: saline
[8] = dose: 100.0 mg/kg/injection, schedule: Q04DX002 (ip), vehicle: Klucel (hydroxypropylcellulose) (HPC)
[9] = dose: 200.0 mg/kg/injection, schedule: Q04DX002 (ip), vehicle: Klucel (hydroxypropylcellulose) (HPC)
[10] = dose: 400.0 mg/kg/injection, schedule: Q04DX002 (ip), vehicle: Klucel (hydroxypropylcellulose) (HPC)
[11] = dose: 100.0 mg/kg/injection, schedule: Q04DX003 (ip), vehicle: Klucel (hydroxypropylcellulose) (HPC)
[12] = dose: 200.0 mg/kg/injection, schedule: Q04DX003 (ip), vehicle: Klucel (hydroxypropylcellulose) (HPC)
[13] = dose: 400.0 mg/kg/injection, schedule: Q04DX003 (ip), vehicle: Klucel (hydroxypropylcellulose) (HPC)
[14] = dose: 100.0 mg/kg/injection, schedule: Q01DX009 (ip), vehicle: Klucel (hydroxypropylcellulose) (HPC)
[15] = dose: 200.0 mg/kg/injection, schedule: Q01DX009 (ip), vehicle: Klucel (hydroxypropylcellulose) (HPC)
[16] = dose: 400.0 mg/kg/injection, schedule: Q01DX009 (ip), vehicle: Klucel (hydroxypropylcellulose) (HPC)
[17] = dose: 100.0 mg/kg/injection, schedule: Q04DX003 (ip), vehicle: saline
[18] = dose: 200.0 mg/kg/injection, schedule: Q04DX003 (ip), vehicle: saline
[19] = dose: 400.0 mg/kg/injection, schedule: Q04DX003 (ip), vehicle: saline
[20] = dose: 100.0 mg/kg/injection, schedule: Q01DX001 (ip), vehicle: saline with Tween-80
[21] = dose: 200.0 mg/kg/injection, schedule: Q01DX001 (ip), vehicle: saline with Tween-80
[22] = dose: 100.0 mg/kg/injection, schedule: Q01DX001 (ip), vehicle: carboxymethylcellulose (CMC)
[23] = dose: 200.0 mg/kg/injection, schedule: Q01DX001 (ip), vehicle: carboxymethylcellulose (CMC)
[24] = dose: 400.0 mg/kg/injection, schedule: Q01DX001 (ip), vehicle: carboxymethylcellulose (CMC)

## C=C(Br)CNC(=O)Nc1ccccc1
[1]
  T/C: 98 % of control
[2]
  T/C: 95 % of control
[3]
  T/C: 102 % of control

## CNC(=S)N/N=C/C(=N\NC(=S)NC)C(O)C(O)C(O)C(O)CO (stereo not given)
dose: 50.0 mg/kg/injection, schedule: Q01DX009 (ip), vehicle: saline
  T/C: 100 % of control
[4]
  T/C: 100 % of control
[5]
  T/C: 91 % of control
[6]
  T/C: 97 % of control
[7]
  T/C: 100 % of control

## CCOP(=O)(OCC)Oc1c(Cl)c(Cl)c(Cl)c(Cl)c1Cl
[8]
  T/C: 104 % of control
[9]
  T/C: 100 % of control
[10]
  T/C: 107 % of control

## CC1CCCCN1Cc1ccccc1COC(=O)c1ccc(Br)cc1 (stereo not given)
[8]
  T/C: 101 % of control
[9]
  T/C: 92 % of control
[10]
  T/C: 96 % of control

## CCCCCCCCCCCCCCCCCCCCCCCCC
[11]
  T/C: 91 % of control
[12]
  T/C: 89 % of control
[13]
  T/C: 87 % of control

## CN(C)[C@@H]1C(=O)C(C(=O)NCNC2(C(=O)O)CCCC2)=C(O)[C@@]2(O)C(=O)C3=C(O)c4c(O)cccc4[C@@](C)(O)[C@H]3C[C@@H]12
dose: 62.0 mg/kg/injection, schedule: Q01DX Z (ip), vehicle: saline
  T/C: 95 % of control
dose: 125.0 mg/kg/injection, schedule: Q01DX Z (ip), vehicle: saline
  T/C: 98 % of control
dose: 250.0 mg/kg/injection, schedule: Q01DX Z (ip), vehicle: saline
  T/C: 114 % of control

## O=C(O)c1ccc(-c2ccc(O)cc2)cc1
[14]
  T/C: 98 % of control
[15]
  T/C: 101 % of control
[16]
  T/C: 102 % of control

## O=C(c1ccccc1)C(Br)S(=O)(=O)C(Br)C(=O)c1ccccc1 (stereo not given)
[17]
  T/C: 107 % of control
[18]
  T/C: 107 % of control
[19]
  T/C: 109 % of control

## Nc1n[nH]c(=O)[nH]1
dose: 44.0 mg/kg/injection, schedule: Q03HX024 (ip), vehicle: saline
  T/C: 108 % of control
dose: 67.0 mg/kg/injection, schedule: Q03HX024 (ip), vehicle: saline
  T/C: 107 % of control
[5]
  T/C: 115 % of control
dose: 100.0 mg/kg/injection, schedule: Q03HX024 (ip), vehicle: saline
  T/C: 112 % of control
dose: 177.0 mg/kg/injection, schedule: Q01DX009 (ip), vehicle: saline
  T/C: 120 % of control
[7]
  T/C: 121 % of control
dose: 225.0 mg/kg/injection, schedule: Q03HX024 (ip), vehicle: saline
  T/C: 153 % of control
dose: 266.0 mg/kg/injection, schedule: Q01DX009 (ip), vehicle: saline
  T/C: 180 % of control
dose: 266.0 mg/kg/injection, schedule: Q04DX003 (ip), vehicle: saline
  T/C: 104 % of control
dose: 400.0 mg/kg/injection, schedule: Q01DX009 (ip), vehicle: saline
  T/C: 185 % of control
[19]
  T/C: 113 % of control
dose: 600.0 mg/kg/injection, schedule: Q01DX009 (ip), vehicle: saline
  T/C: 164 % of control and 186 % of control
dose: 600.0 mg/kg/injection, schedule: Q04DX003 (ip), vehicle: saline
  T/C: 118 % of control

## O=C(O)CCC(=O)c1ccc2c3c1CCCC3CC2 (stereo not given)
[8]
  T/C: 107 % of control
[9]
  T/C: 101 % of control
[10]
  T/C: 93 % of control

## O=NN(CCCl)C(=O)NC1CCS(=O)(=O)C1 (stereo not given) (tested in a mixture with another compound)
dose: 6.0 mg/kg/injection, schedule: Q01DX001 (ip), vehicle: other
  T/C: 177 % of control
dose: 9.0 mg/kg/injection, schedule: Q01DX001 (ip), vehicle: other
  T/C: 270 % of control
dose: 13.0 mg/kg/injection, schedule: Q01DX001 (ip), vehicle: other
  T/C: 300 % of control
dose: 20.0 mg/kg/injection, schedule: Q01DX001 (ip), vehicle: other
  T/C: 200 % of control
dose: 30.0 mg/kg/injection, schedule: Q01DX001 (ip), vehicle: other
  T/C: 223 % of control
dose: 44.0 mg/kg/injection, schedule: Q01DX001 (ip), vehicle: other
  T/C: 184 % of control
dose: 67.0 mg/kg/injection, schedule: Q01DX001 (ip), vehicle: other
  T/C: 102 % of control

## Nc1nc([Se]c2ccc([N+](=O)[O-])cc2)c2ncn(C3CC(O)C(CO)O3)c2n1 (stereo not given)
dose: 100.0 mg/kg/injection, schedule: Q01DX005 (ip), vehicle: saline
  T/C: 100 % of control
dose: 200.0 mg/kg/injection, schedule: Q01DX005 (ip), vehicle: saline
  T/C: 100 % of control

## O=C(O)/C=C/C(=O)NCCNC(=O)/C=C/C(=O)O
[11]
  T/C: 96 % of control
[12]
  T/C: 93 % of control
[13]
  T/C: 96 % of control

## ClC1=C(Cl)C2(Cl)C3C4CCC(C4)C3C1(Cl)C2(Cl)Cl (stereo not given)
[18]
  T/C: 121 % of control
[19]
  T/C: 108 % of control

## CCOC(=O)c1csc(CNC(=O)c2ccccc2)n1
[20]
  T/C: 107 % of control
dose: 100.0 mg/kg/injection, schedule: Q01DX009 (ip), vehicle: saline with Tween-80
  T/C: 100 % of control
[1]
  T/C: 97 % of control
[21]
  T/C: 98 % of control
dose: 200.0 mg/kg/injection, schedule: Q01DX009 (ip), vehicle: saline with Tween-80
  T/C: 97 % of control
[2]
  T/C: 95 % of control
dose: 400.0 mg/kg/injection, schedule: Q01DX001 (ip), vehicle: saline with Tween-80
  T/C: 104 % of control
dose: 400.0 mg/kg/injection, schedule: Q01DX009 (ip), vehicle: saline with Tween-80
  T/C: 103 % of control
[3]
  T/C: 93 % of control

## CCCCC(CC)COC(=O)CC(O)C(=O)OCC(CC)CCCC (stereo not given)
[14]
  T/C: 103 % of control
[15]
  T/C: 100 % of control
[16]
  T/C: 103 % of control

## CCNc1c([N+](=O)[O-])cc(S(=O)(=O)O)cc1[N+](=O)[O-]
[17]
  T/C: 116 % of control
[18]
  T/C: 105 % of control
[19]
  T/C: 95 % of control

## Cc1ccc(NC(=O)Oc2ccc3ccccc3c2)c([N+](=O)[O-])c1
[1]
  T/C: 99 % of control
[2]
  T/C: 99 % of control
[3]
  T/C: 89 % of control

## CC(=O)Oc1ccc(Br)cc1C=O
[22]
  T/C: 100 % of control
[23]
  T/C: 94 % of control
[24]
  T/C: 103 % of control

## Nc1ccc(OCCNS(=O)(=O)c2ccc(S(=O)(=O)F)cc2)c(Cl)c1
dose: 25.0 mg/kg/injection, schedule: Q04DX003 (ip), vehicle: Klucel (hydroxypropylcellulose) (HPC)
  T/C: 97 % of control
dose: 50.0 mg/kg/injection, schedule: Q01DX001 (ip), vehicle: saline with Tween-80
  T/C: 91 % of control
dose: 50.0 mg/kg/injection, schedule: Q04DX003 (ip), vehicle: Klucel (hydroxypropylcellulose) (HPC)
  T/C: 97 % of control
[20]
  T/C: 92 % of control
[11]
  T/C: 99 % of control and 105 % of control
[21]
  T/C: 100 % of control

## CNc1nc(SC)ncc1C
dose: 25.0 mg/kg/injection, schedule: Q01DX Z (ip), vehicle: methylcellulose (MC)
  T/C: 92 % of control
dose: 50.0 mg/kg/injection, schedule: Q01DX Z (ip), vehicle: methylcellulose (MC)
  T/C: 89 % of control

## Cc1cc(NS(=O)(=O)c2ccc(N=Nc3cc(N=Nc4ccccc4)c(N)nc3N)cc2)nc(C)n1
[4]
  T/C: 100 % of control
[6]
  T/C: 100 % of control
dose: 400.0 mg/kg/injection, schedule: Q01DX001 (ip), vehicle: saline
  T/C: 105 % of control

## Cc1ccc(NC(=O)NCCCOc2ccc(N3C(N)=NC(N)=NC3(C)C)cc2Cl)cc1S(=O)(=O)F
dose: 50.0 mg/kg/injection, schedule: Q01DX001 (ip), vehicle: saline
  T/C: 93 % of control
[4]
  T/C: 98 % of control
[6]
  T/C: 97 % of control

## O=C(N/N=C\c1ccc(N(CCCl)CCCl)cc1)c1ccccn1
dose: 50.0 mg/kg/injection, schedule: Q01DX001 (ip), vehicle: carboxymethylcellulose (CMC)
  T/C: 108 % of control
[22]
  T/C: 108 % of control
[23]
  T/C: 103 % of control
[24]
  T/C: 100 % of control
